Data reported in patent US20100061928A1, “LABELLED ANALOGUES OF HALOBENZAMIDES AS RADIOPHARMACEUTICALS” (Institut National De La Sante et De La Recherche Medicale …, priority 2006, published 2010).
Structures can show the parent of a compound that is named as a salt.

Assays:
[1] = test system: grafted B16 F0 murine melanoma tumour; test: Biodistribution of the ^125I-labelled molecules in the melanoma-bearing mouse (autoradiography of whole-body sections); conditions: ^125I-labelled compound
Procedure: The distribution of the radioactivity of the various compounds in the body (tumour and other organs) is quantified using an Ambis 4000 image analyzer on sections of whole animals. […] All the in vivo experimentation is carried out within the context defined by French legislation relating to animal experimentation.
The B16 F0 melanoma cells are provided by the ATCC and cultured in monolayers in culture medium (MEM, Invitrogen) supplemented with 10% foetal calf serum and antibiotics. The cultures are maintained by subculturing after trypsinization. The cells of the first passages are frozen and stored in liquid nitrogen. For the transplanting, the cells in culture at confluence are detached by trypsinization and washed with phosphate buffer (PBS).
The distribution of the radioactivity present in the sections is analyzed using an AMBIS 4000 analyzer (Scanalytics, CSPI, San Diego, Calif.), which is a proportional counter with a multiwire chamber validated and calibrated beforehand for the monitoring of iodine in the mouse. The measurements require acquisition times of 1000 minutes. […] The value of radioactivity per unit of surface area (cpm/mm^2) is converted to concentration (kBq/g) and expressed as percentage of the injected dose/g of tissue (% ID/g).

tumour = test: Dosimetry with regard to the tumour (MIRD programme, extrapolated to ^131I)
[2] = Elimination of the molecules: cumulative urinary and faecal excretion 0-72 hours; format: in vivo, mouse; conditions: cumulative excretion 0-72 hours

Concentration of radioactivity, B 16 (tumour), Mean ([1]; 1 H after i.v. administration): 2.96 % ID/g | Concentration of radioactivity, Ic (intestinal contents), Mean ([1]; 1 H after i.v. administration): 58.60 % ID/g | Concentration of radioactivity, Sc (stomach contents), Mean ([1]; 1 H after i.v. administration): 24.51 % ID/g | Concentration of radioactivity, blood (measured in the heart cavity), Mean ([1]; 1 H after i.v. administration): 2.20 % ID/g | Concentration of radioactivity, brain, Mean ([1]; 1 H after i.v. administration): 0.33 % ID/g | Concentration of radioactivity, kidney, Mean ([1]; 1 H after i.v. administration): 7.12 % ID/g | Concentration of radioactivity, liver, Mean ([1]; 1 H after i.v. administration): 4.86 % ID/g | Concentration of radioactivity, lungs, Mean ([1]; 1 H after i.v. administration): 6.48 % ID/g | Concentration of radioactivity, muscle (skeletal muscle), Mean ([1]; 1 H after i.v. administration): 1.10 % ID/g | Concentration of radioactivity, spleen, Mean ([1]; 1 H after i.v. administration): 8.16 % ID/g | Concentration of radioactivity, uvea (pigmented tissues of the eye), Mean ([1]; 1 H after i.v. administration): 28.30 % ID/g | Concentration of radioactivity, B 16 (tumour), Mean ([1]; 3 H after i.v. administration): 5.40 % ID/g | Concentration of radioactivity, Ic (intestinal contents), Mean ([1]; 3 H after i.v. administration): 52.06 % ID/g | Concentration of radioactivity, Sc (stomach contents), Mean ([1]; 3 H after i.v. administration): 30.71 % ID/g | Concentration of radioactivity, blood (measured in the heart cavity), Mean ([1]; 3 H after i.v. administration): 3.93 % ID/g | Concentration of radioactivity, brain, Mean ([1]; 3 H after i.v. administration): 0.36 % ID/g | Concentration of radioactivity, kidney, Mean ([1]; 3 H after i.v. administration): 5.04 % ID/g | Concentration of radioactivity, liver, Mean ([1]; 3 H after i.v. administration): 2.56 % ID/g | Concentration of radioactivity, lungs, Mean ([1]; 3 H after i.v. administration): 3.38 % ID/g | Concentration of radioactivity, muscle (skeletal muscle), Mean ([1]; 3 H after i.v. administration): 1.30 % ID/g | Concentration of radioactivity, spleen, Mean ([1]; 3 H after i.v. administration): 12.67 % ID/g | Concentration of radioactivity, uvea (pigmented tissues of the eye), Mean ([1]; 3 H after i.v. administration): 16.60 % ID/g | Concentration of radioactivity, B 16 (tumour), Mean ([1]; 6 H after i.v. administration): 9.87 % ID/g | Concentration of radioactivity, Ic (intestinal contents), Mean ([1]; 6 H after i.v. administration): 26.14 % ID/g | Concentration of radioactivity, Sc (stomach contents), Mean ([1]; 6 H after i.v. administration): 48.21 % ID/g | Concentration of radioactivity, brain, Mean ([1]; 6 H after i.v. administration): 0.65 % ID/g | Concentration of radioactivity, kidney, Mean ([1]; 6 H after i.v. administration): 4.47 % ID/g | Concentration of radioactivity, lungs, Mean ([1]; 6 H after i.v. administration): 4.56 % ID/g | Concentration of radioactivity, uvea (pigmented tissues of the eye), Mean ([1]; 6 H after i.v. administration): 22.16 % ID/g | Concentration of radioactivity, B 16 (tumour), Mean ([1]; 24 H after i.v. administration): 5.22 % ID/g | Concentration of radioactivity, uvea (pigmented tissues of the eye), Mean ([1]; 24 H after i.v. administration): 11.17 % ID/g | Concentration of radioactivity, Sc (stomach contents), Mean ([1]; 72 H after i.v. administration): 3.42 % ID/g | Concentration of radioactivity, uvea (pigmented tissues of the eye), Mean ([1]; 72 H after i.v. administration): 2.41 % ID/g | Effective period (tumour; extrapolated to 131I labelling): 7.5 h | Biological period (tumour; from biodistribution data): 7.8 hours | Faecal elimination 0-72 hours (Faeces) ([2]; faeces, mice in metabolic cages): 24.0% | Urinary and faecal elimination 0-72 hours (Total) ([2]; urine + faeces): 76.6% | Urinary elimination 0-72 hours (Urine) ([2]; urine, mice in metabolic cages): 52.6%
SMILES: CCN(CC)CCNC(=O)c1nc2ccccn2c1I [compound 16, N-(2-diethylaminoethyl)-3-iodoimidazo[1,2-a]pyridine-2-carboxamide dihydrochloride]
